According to patent publication US20240185945A1, “SYSTEMS AND METHODS FOR MODELING AND DISPLAYING SWEETENER SYNERGY” (WM. WRIGLEY JR. COMPANY, priority 2022, published 2024):

Biological target: T1, sweet taste receptor (Homo sapiens, UniProt Q7RTX0+Q8TE23)
T1 sequence (Q8TE23 20-839): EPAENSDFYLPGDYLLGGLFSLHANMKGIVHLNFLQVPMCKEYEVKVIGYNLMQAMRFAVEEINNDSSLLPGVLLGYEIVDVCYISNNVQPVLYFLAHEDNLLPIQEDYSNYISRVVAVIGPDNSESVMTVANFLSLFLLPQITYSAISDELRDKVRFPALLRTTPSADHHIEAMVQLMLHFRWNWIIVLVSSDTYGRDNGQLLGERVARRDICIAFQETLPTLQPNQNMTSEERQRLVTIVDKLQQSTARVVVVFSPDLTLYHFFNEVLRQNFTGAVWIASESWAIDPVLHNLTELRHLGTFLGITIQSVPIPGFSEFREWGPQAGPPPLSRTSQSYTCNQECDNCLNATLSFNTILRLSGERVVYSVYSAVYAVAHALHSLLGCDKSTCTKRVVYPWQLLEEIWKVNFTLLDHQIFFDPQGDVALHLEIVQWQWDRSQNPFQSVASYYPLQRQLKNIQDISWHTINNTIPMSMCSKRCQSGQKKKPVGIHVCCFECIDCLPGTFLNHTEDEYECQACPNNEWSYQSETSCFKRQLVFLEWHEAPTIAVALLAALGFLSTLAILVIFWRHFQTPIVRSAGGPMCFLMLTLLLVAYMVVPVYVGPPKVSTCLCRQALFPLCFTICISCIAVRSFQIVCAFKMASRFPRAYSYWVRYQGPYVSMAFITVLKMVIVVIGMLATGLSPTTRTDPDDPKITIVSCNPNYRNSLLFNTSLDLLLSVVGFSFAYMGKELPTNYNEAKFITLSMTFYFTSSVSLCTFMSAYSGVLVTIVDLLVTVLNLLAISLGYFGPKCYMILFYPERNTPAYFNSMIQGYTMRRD
T1 sequence (Q7RTX0 21-852): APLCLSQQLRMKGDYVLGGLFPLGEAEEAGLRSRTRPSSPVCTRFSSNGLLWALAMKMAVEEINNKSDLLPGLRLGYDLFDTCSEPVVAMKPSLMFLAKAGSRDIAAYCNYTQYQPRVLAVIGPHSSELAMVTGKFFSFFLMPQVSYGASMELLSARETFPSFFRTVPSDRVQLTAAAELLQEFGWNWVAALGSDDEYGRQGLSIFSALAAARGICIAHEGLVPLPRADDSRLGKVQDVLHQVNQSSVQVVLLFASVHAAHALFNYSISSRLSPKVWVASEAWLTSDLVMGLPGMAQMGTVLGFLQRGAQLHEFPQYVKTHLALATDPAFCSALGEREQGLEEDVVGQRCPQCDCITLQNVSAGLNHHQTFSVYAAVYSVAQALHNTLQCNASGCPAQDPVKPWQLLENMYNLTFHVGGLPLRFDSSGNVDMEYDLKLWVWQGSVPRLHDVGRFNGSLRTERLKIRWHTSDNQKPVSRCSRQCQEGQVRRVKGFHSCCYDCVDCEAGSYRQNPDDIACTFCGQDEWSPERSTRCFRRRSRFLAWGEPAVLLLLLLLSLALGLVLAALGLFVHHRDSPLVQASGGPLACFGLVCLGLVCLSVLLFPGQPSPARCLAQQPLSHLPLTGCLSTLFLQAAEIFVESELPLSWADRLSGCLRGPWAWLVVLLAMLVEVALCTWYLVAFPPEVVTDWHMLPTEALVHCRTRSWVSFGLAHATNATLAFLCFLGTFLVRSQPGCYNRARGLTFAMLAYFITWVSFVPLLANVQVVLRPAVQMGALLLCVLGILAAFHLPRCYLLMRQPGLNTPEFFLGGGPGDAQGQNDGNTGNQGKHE
Assay: Synergy effects (sweet taste receptor signal increase) in binary compound mixtures
Type: cell-based
Conditions: calculated as L(X&Y)/(L(X)+L(Y)); for Synergy effect observed in binary compound mixture with sucralose: partner sucralose; for Synergy effect observed in binary compound mixture with sucrose: partner sucrose; for Synergy effect observed in binary compound mixture with NHDC: partner NHDC; for Synergy effect observed in binary compound mixture with Reb A: partner Reb A; for Synergy effect observed in binary compound mixture with Thaumatin: partner Thaumatin; for Synergy effect observed in binary compound mixture with Aspartame: partner Aspartame
Procedure: The present example describes sweet taste receptor signal increases calculated for the following sweeteners: aspartame, sucrose, sucralose, rebaudioside A, rebaudioside D, thaumatin, NHDC, and S819 are present in various combinations in a binary mixture as shown in Table 1.
Synergy between binary mixtures of the sweeteners was calculated as following: L(X&Y)/(L(X)+L(Y)).

Compound | Synergy effect observed in binary compound mixture with sucralose | Synergy effect observed in binary compound mixture with sucrose | Synergy effect observed in binary compound mixture with NHDC | Synergy effect observed in binary compound mixture with Reb A | Synergy effect observed in binary compound mixture with Thaumatin | Synergy effect observed in binary compound mixture with Aspartame
C=C1C[C@@]23CC[C@H]4[C@@](C)(CCC[C@@]4(C)C(=O)O[C@@H]4O[C@H](CO)[C@@H](O)[C@H](O)[C@H]4O[C@@H]4O[C@H](CO)[C@@H](O)[C@H](O)[C@H]4O)[C@@H]2CC[C@]1(O[C@@H]1O[C@H](CO)[C@@H](O)[C@H](O[C@@H]2O[C@H](CO)[C@@H](O)[C@H](O)[C@H]2O)[C@H]1O[C@@H]1O[C@H](CO)[C@@H](O)[C@H](O)[C@H]1O)C3 [Reb D, Rebaudioside D] | 0.3 | 0.25 |  |  |  | 
CC(C)Oc1ccc(NC(=S)NCc2ccc[nH]2)cc1 [S819, 1-((1H-pyrrol-2-yl)methyl)-3-(4-isopropoxyphenyl)thiourea] |  |  | 0.4 | 0.25 | 0.4 | 
COc1ccc(CCC(=O)c2c(O)cc(O[C@@H]3O[C@H](CO)[C@@H](O)[C@H](O)[C@H]3O[C@@H]3O[C@@H](C)[C@H](O)[C@@H](O)[C@H]3O)cc2O)cc1O [NHDC] |  |  |  |  | 0.06 | 0.5
Thaumatin |  |  |  | 0.4 |  | 0.5
C=C1C[C@@]23CC[C@H]4[C@@](C)(CCC[C@@]4(C)C(=O)O[C@@H]4O[C@H](CO)[C@@H](O)[C@H](O)[C@H]4O)[C@@H]2CC[C@]1(O[C@@H]1O[C@H](CO)[C@@H](O)[C@H](O[C@@H]2O[C@H](CO)[C@@H](O)[C@H](O)[C@H]2O)[C@H]1O[C@@H]1O[C@H](CO)[C@@H](O)[C@H](O)[C@H]1O)C3 [Reb A, Rebaudioside A] | 0.3 | 0.5 | 0.25 |  |  | 
